Experimental data: PubChem BioAssay AID1845212 (Molecular Pharmacology Branch, DTP, NCI, 2023)
Several values for one entry are separate records, joined by “and”; a condition that tells them apart may be missing. Equal entries are not always repeated.

Tested on: NCI-H719 tumor spheroids, viability
Test: Anticancer human tumor NCI-H719 cell line growth inhibition;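 also: spheroids exposed to compounds for seven days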;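 as to viability, T/C: percent viability relative to DMSO vehicle control as 100%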
Conditions: spheroids with HUVEC and MSC; for viability, T/C: stronger effect = lower value
Procedure, shortened: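 Single agents and combinations were tested on spheroids built from tumor cells plus HUVEC and hMSC, at half-log dilutions starting at or near clinical Cmax, else 10 microM; final DMSO 0.25% (v/v).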

[1] = curve of first compound, second compound 0.003 µM

Question: For `COc1ccc([C@@H](O)c2cc(-c3ncnc4cc(N5CCOCC5)ccc34)c(F)cc2Cl)nn1` + CC[C@@]1(O)C(=O)OCc2c1cc1n(c2=O)Cc2cc3c(CN(C)C)c(O)ccc3nc2-1, which IC50 [1] is on record?
Answer: < 31.6 nM

Question: What about the IC50 (curve of first compound, second compound 0.00949 µM) of the same compound?
Answer: < 31.6 nM

Question: And the IC50 (curve of first compound, second compound 0.03 µM)?
Answer: < 31.6 nM

Question: And the IC50 (curve of first compound, second compound 0.0949 µM)?
Answer: < 31.6 nM

Question: What about the IC50 (curve of first compound, second compound 0.3 µM) of the same compound?
Answer: < 31.6 nM

Question: What about the viability, T/C (second compound 0.003 µM, first compound 0.0316 µM) of the same compound?
Answer: 42.3%

Question: And the viability, T/C (second compound 0.003 µM, first compound 0.1 µM)?
Answer: 46.7%

Question: And the viability, T/C (second compound 0.003 µM, first compound 0.316 µM)?
Answer: 42.6%

Question: What about the viability, T/C (second compound 0.003 µM, first compound 1 µM) of the same compound?
Answer: 38.4%

Question: And the viability, T/C (second compound 0.003 µM, first compound 3.16 µM)?
Answer: 30.1%

Question: What about the viability, T/C (second compound 0.003 µM, first compound 10 µM) of the same compound?
Answer: 10.6%

Question: What about the viability, T/C (second compound 0.00949 µM, first compound 0.0316 µM) of the same compound?
Answer: 8.42%

Question: And the viability, T/C (second compound 0.00949 µM, first compound 0.1 µM)?
Answer: 6.63%

Question: What about the viability, T/C (second compound 0.00949 µM, first compound 0.316 µM) of the same compound?
Answer: 6.02%

Question: And the viability, T/C (second compound 0.00949 µM, first compound 1 µM)?
Answer: 6.07%

Question: And the viability, T/C (second compound 0.00949 µM, first compound 3.16 µM)?
Answer: 6.61%

Question: What about the viability, T/C (second compound 0.00949 µM, first compound 10 µM) of the same compound?
Answer: 5.88%

Question: What about the viability, T/C (second compound 0.03 µM, first compound 0.0316 µM) of the same compound?
Answer: 5.79%

Question: What about the viability, T/C (second compound 0.03 µM, first compound 0.1 µM) of the same compound?
Answer: 6.19%

Question: And the viability, T/C (second compound 0.03 µM, first compound 0.316 µM)?
Answer: 5.16%

Question: What about the viability, T/C (second compound 0.03 µM, first compound 1 µM) of the same compound?
Answer: 5.17%

Question: And the viability, T/C (second compound 0.03 µM, first compound 3.16 µM)?
Answer: 4.89%

Question: And the viability, T/C (second compound 0.03 µM, first compound 10 µM)?
Answer: 3.08%

Question: And the viability, T/C (second compound 0.0949 µM, first compound 0.0316 µM)?
Answer: 6.51%

Question: What about the viability, T/C (second compound 0.0949 µM, first compound 0.1 µM) of the same compound?
Answer: 7.08%

Question: What about the viability, T/C (second compound 0.0949 µM, first compound 0.316 µM) of the same compound?
Answer: 5.96%

Question: What about the viability, T/C (second compound 0.0949 µM, first compound 1 µM) of the same compound?
Answer: 5.16%

Question: And the viability, T/C (second compound 0.0949 µM, first compound 3.16 µM)?
Answer: 3.45%

Question: And the viability, T/C (second compound 0.0949 µM, first compound 10 µM)?
Answer: 1.55%

Question: And the viability, T/C (second compound 0.3 µM, first compound 0.0316 µM)?
Answer: 7.33%

Question: And the viability, T/C (second compound 0.3 µM, first compound 0.1 µM)?
Answer: 7.08%

Question: What about the viability, T/C (second compound 0.3 µM, first compound 0.316 µM) of the same compound?
Answer: 6.09%

Question: And the viability, T/C (second compound 0.3 µM, first compound 1 µM)?
Answer: 3.58%

Question: And the viability, T/C (second compound 0.3 µM, first compound 3.16 µM)?
Answer: 1.58%

Question: And the viability, T/C (second compound 0.3 µM, first compound 10 µM)?
Answer: 1.36%

Question: `Cc1sc2c(c1C)C(c1ccc(Cl)cc1)=NC(CC(=O)Nc1ccc(O)cc1)c1nnc(C)n1-2` (stereo unspecified) + COc1cc2c(cc1O)CCNC21CSC2c3c(OC(C)=O)c(C)c4c(c3C(COC1=O)N1C(O)C3Cc5cc(C)c(OC)c(O)c5C(C21)N3C)OCO4 was tested. Which IC50 (curve of first compound, second compound 30 pM) did it give?
Answer: 139 nM

Question: What about the IC50 (curve of first compound, second compound 94.9 pM) of the same compound?
Answer: < 9.49 nM

Question: What about the IC50 (curve of first compound, second compound 0.0003 µM) of the same compound?
Answer: < 9.49 nM

Question: What about the IC50 (curve of first compound, second compound 0.000949 µM) of the same compound?
Answer: < 9.49 nM

Question: And the IC50 [1]?
Answer: < 9.49 nM

Question: And the viability, T/C (second compound 30 pM, first compound 0.00949 µM)?
Answer: 77.2%

Question: And the viability, T/C (second compound 30 pM, first compound 0.03 µM)?
Answer: 90.2%

Question: And the viability, T/C (second compound 30 pM, first compound 0.0949 µM)?
Answer: 69.2%

Question: What about the viability, T/C (second compound 30 pM, first compound 0.3 µM) of the same compound?
Answer: 11.1%

Question: And the viability, T/C (second compound 30 pM, first compound 0.949 µM)?
Answer: 3.27%

Question: What about the viability, T/C (second compound 30 pM, first compound 3 µM) of the same compound?
Answer: 2.11%

Question: What about the viability, T/C (second compound 94.9 pM, first compound 0.00949 µM) of the same compound?
Answer: 34.7%

Question: What about the viability, T/C (second compound 94.9 pM, first compound 0.03 µM) of the same compound?
Answer: 33.6%

Question: What about the viability, T/C (second compound 94.9 pM, first compound 0.0949 µM) of the same compound?
Answer: 35%

Question: And the viability, T/C (second compound 94.9 pM, first compound 0.3 µM)?
Answer: 7.23%

Question: What about the viability, T/C (second compound 94.9 pM, first compound 0.949 µM) of the same compound?
Answer: 3.48%

Question: What about the viability, T/C (second compound 94.9 pM, first compound 3 µM) of the same compound?
Answer: 1.41%

Question: And the viability, T/C (second compound 0.0003 µM, first compound 0.00949 µM)?
Answer: 8.51%

Question: And the viability, T/C (second compound 0.0003 µM, first compound 0.03 µM)?
Answer: 6.28%

Question: And the viability, T/C (second compound 0.0003 µM, first compound 0.0949 µM)?
Answer: 6.64%

Question: And the viability, T/C (second compound 0.0003 µM, first compound 0.3 µM)?
Answer: 4.03%

Question: What about the viability, T/C (second compound 0.0003 µM, first compound 0.949 µM) of the same compound?
Answer: 1.94%

Question: And the viability, T/C (second compound 0.0003 µM, first compound 3 µM)?
Answer: 2.8%

Question: What about the viability, T/C (second compound 0.000949 µM, first compound 0.00949 µM) of the same compound?
Answer: 6.63%

Question: And the viability, T/C (second compound 0.000949 µM, first compound 0.03 µM)?
Answer: 6.95%

Question: And the viability, T/C (second compound 0.000949 µM, first compound 0.0949 µM)?
Answer: 4.47%

Question: And the viability, T/C (second compound 0.000949 µM, first compound 0.3 µM)?
Answer: 1.87%

Question: What about the viability, T/C (second compound 0.000949 µM, first compound 0.949 µM) of the same compound?
Answer: 1.26%

Question: What about the viability, T/C (second compound 0.000949 µM, first compound 3 µM) of the same compound?
Answer: 0.53%

Question: What about the viability, T/C (second compound 0.003 µM, first compound 0.00949 µM) of the same compound?
Answer: 0.27%

Question: What about the viability, T/C (second compound 0.003 µM, first compound 0.03 µM) of the same compound?
Answer: 0.37%

Question: What about the viability, T/C (second compound 0.003 µM, first compound 0.0949 µM) of the same compound?
Answer: 0.18%

Question: And the viability, T/C (second compound 0.003 µM, first compound 0.3 µM)?
Answer: 0.13%

Question: What about the viability, T/C (second compound 0.003 µM, first compound 0.949 µM) of the same compound?
Answer: 0.18%

Question: And the viability, T/C (second compound 0.003 µM, first compound 3 µM)?
Answer: 0.31%

Question: What does the source list for `CNCc1ccc(-c2cc(-c3nc(-c4ccc(S(=O)(=O)C(C)C)cc4)cnc3N)on2)cc1`?
Answer: viability, T/C (compound 0.00949 µM): 96.3% and 108% and 109%; viability, T/C (compound 0.03 µM): 103% (2×) and 107%; viability, T/C (compound 0.0949 µM): 57.4% and 81.5% and 93.3%; viability, T/C (compound 0.3 µM): 41.9% and 37.8% and 43.2%; viability, T/C (compound 0.949 µM): 9.72% and 6.55% and 13.6%; IC50 (curve of compound): 158 nM and 216 nM and 264 nM
